The target in test [1] is T1, TBK1 (Homo sapiens, UniProt Q9UHD2).
T1 construct: TBK1 and IKKε were expressed and purified as full length recombinant proteins; made in house
T1 sequence (Q9UHD2 1-729): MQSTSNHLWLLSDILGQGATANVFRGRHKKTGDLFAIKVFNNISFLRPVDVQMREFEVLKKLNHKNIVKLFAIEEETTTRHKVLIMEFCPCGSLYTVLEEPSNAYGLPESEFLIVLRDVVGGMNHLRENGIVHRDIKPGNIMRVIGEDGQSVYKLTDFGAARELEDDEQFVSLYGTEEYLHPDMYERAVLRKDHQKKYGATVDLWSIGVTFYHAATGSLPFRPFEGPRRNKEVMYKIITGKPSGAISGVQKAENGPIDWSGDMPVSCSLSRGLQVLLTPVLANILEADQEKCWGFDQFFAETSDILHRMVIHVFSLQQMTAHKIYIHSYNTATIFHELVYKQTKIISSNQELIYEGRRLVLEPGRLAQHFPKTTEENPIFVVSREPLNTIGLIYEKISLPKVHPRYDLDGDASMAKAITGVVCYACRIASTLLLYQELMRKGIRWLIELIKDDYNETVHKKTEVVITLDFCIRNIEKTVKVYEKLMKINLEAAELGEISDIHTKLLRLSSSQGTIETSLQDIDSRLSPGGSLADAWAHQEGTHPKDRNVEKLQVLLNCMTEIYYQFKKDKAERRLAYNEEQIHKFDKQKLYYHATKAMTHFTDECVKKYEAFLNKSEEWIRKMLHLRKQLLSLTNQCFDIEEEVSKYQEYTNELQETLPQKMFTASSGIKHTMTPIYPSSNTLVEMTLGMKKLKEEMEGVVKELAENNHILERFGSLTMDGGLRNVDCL
As to the kind of experiment: TR-FRET enzymatic activity assay, TBK1. Note: full length recombinant TBK1 at 2.5 nM. In kind it is biochemical. A digest of the protocol: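 Full-length recombinant enzymes phosphorylated a biotinylated Ser/Thr peptide for 240 min at 25 °C, stopped with EDTA. Phosphopeptide detected by TR-FRET (streptavidin XL665, Eu-cryptate anti-phospho antibody). IC50 from four-parameter fits normalized to 1 μM staurosporine and DMSO controls, as geometric means of at least four determinations.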
In general terms: In TR-FRET formats the signal depends on donor and acceptor labels being close together.

The target in test [2] is T2, IKKε (Homo sapiens, UniProt Q14164).
T2 construct: TBK1 and IKKε were expressed and purified as full length recombinant proteins; made in house
T2 sequence (Q14164 1-716): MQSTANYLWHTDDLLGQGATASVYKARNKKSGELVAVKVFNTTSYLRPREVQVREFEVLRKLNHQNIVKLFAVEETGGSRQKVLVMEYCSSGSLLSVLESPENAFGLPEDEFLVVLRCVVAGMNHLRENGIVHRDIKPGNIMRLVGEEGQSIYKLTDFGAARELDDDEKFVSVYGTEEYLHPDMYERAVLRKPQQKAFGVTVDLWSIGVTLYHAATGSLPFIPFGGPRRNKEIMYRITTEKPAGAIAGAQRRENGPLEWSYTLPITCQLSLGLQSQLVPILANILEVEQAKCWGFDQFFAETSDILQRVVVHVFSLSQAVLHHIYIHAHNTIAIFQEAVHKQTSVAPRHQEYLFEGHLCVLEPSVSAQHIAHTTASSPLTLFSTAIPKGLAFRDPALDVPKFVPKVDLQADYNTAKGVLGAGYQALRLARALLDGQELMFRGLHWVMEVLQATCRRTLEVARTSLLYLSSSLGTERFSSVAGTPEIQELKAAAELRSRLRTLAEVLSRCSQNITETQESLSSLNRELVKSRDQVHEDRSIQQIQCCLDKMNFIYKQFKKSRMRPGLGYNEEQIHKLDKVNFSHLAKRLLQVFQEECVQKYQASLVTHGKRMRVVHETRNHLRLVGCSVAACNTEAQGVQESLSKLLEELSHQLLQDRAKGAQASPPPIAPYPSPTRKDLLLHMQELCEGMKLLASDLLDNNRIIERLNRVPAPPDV
As to the kind of experiment: TR-FRET enzymatic activity assay, IKKε. Note: full length recombinant IKKε at 0.3 nM. The settings on record: read-out: IKKϵ IC50. The format is biochemical. Put shortly: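 Full-length recombinant IKKε phosphorylated a biotinylated Ser/Thr peptide for 240 min at 25 °C; EDTA stop. Phospho-peptide detected by TR-FRET with streptavidin-XL665 (125 nM) and Eu-cryptate anti-phospho antibody. Normalised to staurosporine and DMSO controls; IC50 from four-parameter fit, geometric mean of ≥4 runs.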

The IC50 is the concentration that gives 50% inhibition. Regarding `C[C@H]1C[C@@H](Oc2ccc(-c3cc(NC(=O)C4CC4)ncn3)cc2C#N)CCN1C(=O)CO` [Example 112, N-(6-(3-cyano-4-(((2S,4S)-1-(2-hydroxyacetyl)-2-methylpiperidin-4-yl)oxy)phenyl)pyrimidin-4-yl)cyclopropanecarboxamide], the IC50 came out at 107 nM in test [1] and 209 nM in test [2].

As to `N#Cc1cc(-c2ccnc(NC(=O)C3CC3C#N)c2)ccc1O[C@H]1CCN(C(=O)CO)C[C@H]1F` (stereo partly drawn) [Example 67, 2-Cyano-N-(4-(3-cyano-4-(((3R,4S)-3-fluoro-1-(2-hydroxyacetyl)piperidin-4-yl)oxy)phenyl)pyridin-2-yl)cyclopropane-1-carboxamide], the figures for the IC50 in test [1] and in test [2] were 26.1 nM and 68.4 nM, respectively.

Take `N#Cc1cc(-c2ccnc(NC(=O)C3CC3)c2)ccc1N1CCCC1` [Example 5, N-(4-(3-cyano-4-(pyrrolidin-1-yl)phenyl)pyridin-2-yl)cyclopropanecarboxamide]: the IC50 is 13.9 nM in test [1] and 68.2 nM in test [2].

Consider `N#Cc1cc(-c2cc(NC(=O)C3CC3)ncn2)ccc1O[C@H]1CCN(C(=O)c2nnc[nH]2)C[C@H]1F` [Example 28, N-(6-(3-cyano-4-(((3R,4S)-3-fluoro-1-(4H-1,2,4-triazole-3-carbonyl)piperidin-4-yl)oxy)phenyl)pyrimidin-4-yl)cyclopropanecarboxamide], for which the figures for the IC50 in test [1] and in test [2] were 8 nM and 12.4 nM, respectively.

Regarding `Cn1cnc(C2CC2C(=O)Nc2cc(-c3ccc(O[C@H]4CCN(C(=O)CO)C[C@H]4F)c(C#N)c3)ccn2)n1` (stereo partly drawn) [Example 145, N-(4-(3-Cyano-4-(((3R,4S)-3-fluoro-1-(2-hydroxyacetyl)piperidin-4-yl)oxy)phenyl)pyridin-2-yl)-2-(1-methyl-1H-1,2,4-triazol-3-yl)cyclopropane-1-carboxamide], the IC50 in test [1] and in test [2] was over 1000 nM in each case.

For `N#Cc1cc(-c2ccnc(NC(=O)[C@@H]3C[C@H]3c3ccccc3)c2)ccc1OC1CCOCC1` [Example 87, (1R,2R)—N-(4-(3-cyano-4-((tetrahydro-2H-pyran-4-yl)oxy)phenyl)pyridin-2-yl)-2-phenylcyclopropane-1-carboxamide], the IC50 in test [1] was 426 nM; in test [2] it was 777 nM.

Consider `N#Cc1cc(-c2ccnc(NC(=O)[C@@H]3C[C@H]3c3ccncc3)c2)ccc1OC1CCOCC1` (relative stereo) [Example 151, Trans-N-(4-(3-cyano-4-((tetrahydro-2H-pyran-4-yl)oxy)phenyl)pyridin-2-yl)-2-(pyridin-4-yl)cyclopropane-1-carboxamide], for which the IC50 in test [1] turned out to be 75.6 nM; in test [2], 200 nM.

In the case of `N#Cc1cc(-c2ccnc(NC(=O)[C@H]3C[C@H]3F)c2)ccc1N1CCC(O)CC1` [Example 65, (1R,2R)—N-(4-(3-cyano-4-(4-hydroxypiperidin-1-yl)phenyl)pyridin-2-yl)-2-fluorocyclopropane-1-carboxamide], the IC50 in test [1] was 470 nM; in test [2], over 1000 nM.

For the compound `Cn1cc(C2C[C@H]2C(=O)Nc2cc(-c3ccc(O[C@H]4CCN(C(=O)CO)CC4(F)F)c(C#N)c3)ccn2)cn1` (stereo in doubt) [Example 89, (1,2-trans)-N-(4-(3-cyano-4-(((S)-3,3-difluoro-1-(2-hydroxyacetyl)piperidin-4-yl)oxy)phenyl)pyridin-2-yl)-2-(1-methyl-1H-pyrazol-4-yl)cyclopropane-1-carboxamide], the IC50 came to 4.5 nM in test [1] and 2.4 nM in test [2].

`N#Cc1cc(-c2ccnc(NC(=O)[C@@H]3C[C@H]3F)c2)ccc1O[C@H]1CCN(C(=O)CO)C[C@H]1F` [Example 62, (1S,2R)—N-(4-(3-cyano-4-(((3R,4S)-3-fluoro-1-(2-hydroxyacetyl)piperidin-4-yl)oxy)phenyl)pyridin-2-yl)-2-fluorocyclopropanecarboxamide]: the IC50 in test [1] is 16.7 nM; in test [2], 16.2 nM.

For the compound `N#Cc1cc(-c2ccnc(NC(=O)C3CCC3)c2)ccc1OC1CCOCC1` [Example 3, N-(4-(3-cyano-4-((tetrahydro-2H-pyran-4-yl)oxy)phenyl)pyridin-2-yl)cyclobutanecarboxamide], the values for the IC50 in test [1] and in test [2] were 335 nM and 284 nM, respectively.

On to `N#Cc1cc(-c2ccnc(NC(=O)[C@@H]3C[C@H]3c3ccc(C4CC4)nc3)c2)ccc1O[C@H]1CCN(C(=O)CO)CC1(F)F` [Example 115, (1R,2R)—N-(4-(3-cyano-4-(((S)-3,3-difluoro-1-(2-hydroxyacetyl)piperidin-4-yl)oxy)phenyl)pyridin-2-yl)-2-(6-cyclopropylpyridin-3-yl)cyclopropane-1-carboxamide], for which the IC50 was determined as 8.1 nM in test [1] and 7.1 nM in test [2].

In the case of `C[C@H](O)C(=O)N1CC[C@H](Oc2ccc(-c3ccnc(NC(=O)C4CC4)c3)cc2C#N)C(F)(F)C1` [Example 11, N-(4-(3-cyano-4-(((S)-3,3-difluoro-1-((S)-2 hydroxypropanoyl)piperidin-4-yl)oxy)phenyl)pyridin-2-yl)cyclopropanecarboxamide], the values for the IC50 in test [1] and in test [2] were 10.2 nM and 26.3 nM, respectively.

For the compound `N#Cc1cc(-c2ccnc(NC(=O)[C@@H]3C[C@H]3C3OCCO3)c2)ccc1OC1CCOCC1` (relative stereo) [Example 44, (1,2-trans)-N-(4-(3-cyano-4-((tetrahydro-2H-pyran-4-yl)oxy)phenyl)pyridin-2-yl)-2-(1,3-dioxolan-2-yl)cyclopropane-1-carboxamide], the results for the IC50 in test [1] and in test [2] were 33.3 nM and 192 nM, respectively.

As to `N#Cc1cc(-c2cc(NC(=O)C3CC3)ncn2)ccc1O[C@H]1CCN(C(=O)CO)CC1(F)F` [Example 20, (S)—N-(6-(3-cyano-4-((3,3-difluoro-1-(2-hydroxyacetyl)piperidin-4-yl)oxy)phenyl)pyrimidin-4-yl)cyclopropanecarboxamide], the IC50 is 4.8 nM in test [1] and 9.5 nM in test [2].

In the case of `N#Cc1cc(-c2ccnc(NC(=O)C3CC3)c2)ccc1O[C@H]1CCN(C(=O)[C@@H](O)CO)CC1(F)F` [Example 157, N-(4-(3-cyano-4-(((S)-1-((S)-2,3-dihydroxypropanoyl)-3,3-difluoropiperidin-4-yl)oxy)phenyl)pyridin-2-yl)cyclopropanecarboxamide], the IC50 in test [1] came to 4.4 nM; in test [2], 4.7 nM.

With `N#Cc1cc(-c2ccnc(NC(=O)C3CC3)c2)ccc1N1CC[C@H](O)C1` [Example 16, (S)—N-(4-(3-cyano-4-(3-hydroxypyrrolidin-1-yl)phenyl)pyridin-2-yl)cyclopropanecarboxamide], the values for the IC50 in test [1] and in test [2] were 52.3 nM and 353 nM, respectively.

On to `N#Cc1cc(-c2ccnc(NC(=O)C3CC3(F)F)c2)ccc1O[C@H]1CCN(C(=O)CO)C[C@H]1F` (stereo partly drawn) [Example 58, N-(4-(3-cyano-4-(((3R,4S)-3-fluoro-1-(2-hydroxyacetyl)piperidin-4-yl)oxy)phenyl)pyridin-2-yl)-2,2-difluorocyclopropane-1-carboxamide], for which the IC50 turned out to be 48.6 nM in test [1] and 30.1 nM in test [2].

With `CN(C)C[C@@H]1C[C@H]1C(=O)Nc1cc(-c2ccc(OC3CCOCC3)c(C#N)c2)ccn1` (relative stereo) [Example 41, (1,2-trans)-N-(4-(3-cyano-4-((tetrahydro-2H-pyran-4-yl)oxy)phenyl)pyridin-2-yl)-2-((dimethylamino)methyl)cyclopropane-1-carboxamide], the IC50 in test [1] came out at 267 nM; in test [2], 80.3 nM.

The values are drawn from US10316049B2, “Tank-binding kinase inhibitor compounds” (Gilead Sciences, Inc., priority 2015, dated 2019).
